Results from the supplement of paper PMC10331698.
± gives the standard deviation of the averaged measurements.

Legend:
Assay in all cases: level (log10 ratio to DMSO vehicle control); higher = higher biomarker level / cell amount than vehicle control
[1] = compound: O=S(=O)(O)C(F)(F)C(F)(F)OC(F)(F)C(F)(F)F [Perfluoro(2-ethoxyethane)sulfonic acid] (in DMSO)
Experimental: (§1)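 BioMAP Diversity Plus panel of 12 human primary cell co-culture systems (3C, 4H, LPS, SAg, BT, BF4T, BE3C, CASM3C, HDF3CGF, KF3CT, MyoF, Mphg). Compounds were added 1 h before stimulation and left for 24 h (MyoF 48 h; BT 72 h for soluble read-outs or 6 d for IgG). Biomarkers were read by ELISA, cytotoxicity by SRB, PBMC viability and proliferation by Alamar Blue. Each well value was divided by the mean of 8 DMSO control wells on the same plate and log10 transformed; duplicate blinded samples were tested at 4 concentrations.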

[2] = compound: CCOC(=O)CC(=O)C(F)(F)C(F)(F)F [Ethyl pentafluoropropionyl acetate] (in DMSO)
Experimental: as §1

[3] = compound: CN(C(=O)C(F)(F)C(F)(F)C(F)(F)F)[Si](C)(C)C [N-Methyl-N-trimethylsilylheptafluorobutyramide] (in DMSO)
Experimental: as §1

[4] = compound: O=S(=O)(O)CCC(F)(F)C(F)(F)C(F)(F)C(F)(F)C(F)(F)C(F)(F)C(F)(F)C(F)(F)F [8:2 Fluorotelomer sulfonic acid] (in DMSO)
Experimental: as §1

[5] = compound: NS(=O)(=O)C(F)(F)C(F)(F)C(F)(F)C(F)(F)C(F)(F)C(F)(F)C(F)(F)C(F)(F)F [Perfluorooctanesulfonamide] (in DMSO)
Experimental: as §1

[6] = compound: O=C(O)C(F)(F)OC(F)(F)C(F)(F)OC(F)(F)C(F)(F)OC(F)(F)C(F)(F)C(F)(F)C(F)(F)F [Perfluoro-3,6,9-trioxatridecanoic acid] (in DMSO); settings: 6700 nM
Experimental: as §1

[7] = compound: O=C(O)C=C(C(F)(F)F)C(F)(F)F [3,3-Bis(trifluoromethyl)-2-propenoic acid] (in DMSO)
Experimental: as §1

| Test System | level (log10) ([1]; 6700 nM) | level (log10) ([1]; 20000 nM) | level (log10) ([1]; 60000 nM) | level (log10) ([2]; 6700 nM) | level (log10) ([2]; 20000 nM) | level (log10) ([2]; 60000 nM) | level (log10) ([3]; 6700 nM) | level (log10) ([3]; 20000 nM) | level (log10) ([3]; 60000 nM) | level (log10) ([4]; 6700 nM) | level (log10) ([4]; 20000 nM) | level (log10) ([4]; 60000 nM) | level (log10) ([5]; 6700 nM) | level (log10) ([5]; 20000 nM) | level (log10) [6] | level (log10) ([7]; 6700 nM) | level (log10) ([7]; 20000 nM) | level (log10) ([7]; 60000 nM) |
| --- | --- | --- | --- | --- | --- | --- | --- | --- | --- | --- | --- | --- | --- | --- | --- | --- | --- | --- |
| 4H:SRB | -0.015 ± 0.0057 | -0.0035 ± 0.0021 | -0.016 ± 0.023 | 0.0055 ± 0.005 | 0.0045 ± 0.012 | 0.0015 ± 0.028 | 0.005 ± 0.0085 | 0.0055 ± 0.022 | -0.003 ± 0.011 | -0.012 ± 0.0014 | -0.0135 ± 0.012 | -0.018 ± 0.033 | -0.005 ± 0.011 | -0.0815 ± 0.0021 | 0.0035 ± 0.0092 | -0.008 ± 0.0042 | -0.026 ± 0.027 | -0.0615 ± 0.015 |
| BF4T:IL-1alpha | -0.0065 ± 0.0078 | -0.016 ± 0.0071 | 0.0165 ± 0.0092 | 0.017 ± 0.021 | 0.0035 ± 0.018 | 0.0315 ± 0.0035 | -0.015 ± 0.016 | -0.0135 ± 0.016 | 0.015 ± 0.042 | 0.004 ± 0.016 | -0.01 ± 0.014 | 0.0065 ± 0.018 | 0.0095 ± 0.012 | -0.0455 ± 0.022 | -0.055 ± 0.013 | -0.009 ± 0.0057 | -0.003 ± 0.0085 | -0.0065 ± 0.035 |
| 4H:VEGFR2 | 0.009 ± 0.086 | 0.028 ± 0.057 | 0.0365 ± 0.12 | -0.0375 ± 0.036 | -0.0265 ± 0.06 | -0.022 ± 0.15 | 0.006 ± 0.0057 | 0.003 ± 0.0099 | 0.019 ± 0.042 | -0.0345 ± 0.12 | 0.003 ± 0.0014 | -0.026 ± 0.0028 | -0.0175 ± 0.035 | -0.006 ± 0.044 | -0.0515 ± 0.047 | -0.02 | -0.019 ± 0.0099 | -0.04 ± 0.0057 |
| BE3C:CXCL9/MIG | 0.002 ± 0.0042 | -0.0145 ± 0.012 | -0.0055 ± 0.0035 | 0.001 ± 0.0099 | 0.001 ± 0.0028 | 0.006 ± 0.0028 | 0.0065 ± 0.018 | 0.0005 ± 0.00071 | 0.004 ± 0.027 | -0.002 ± 0.0085 | -0.015 ± 0.0028 | -0.03 ± 0.011 | -0.0015 ± 0.0021 | 0.013 ± 0.013 | -1.19 ± 0.017 | -0.007 ± 0.014 | -0.007 ± 0.0057 | 0.005 ± 0.023 |
| BF4T:uPA | -0.003 ± 0.011 | -0.0025 ± 0.021 | 0.0235 ± 0.00071 | -0.0145 ± 0.023 | -0.0045 ± 0.013 | -0.0175 ± 0.025 | -0.013 ± 0.031 | -0.012 ± 0.013 | -0.008 ± 0.0028 | 0.012 ± 0.0085 | 0.0055 ± 0.00071 | 0.0175 ± 0.0092 | 0.014 ± 0.016 | 0.005 ± 0.034 | 0.0245 ± 0.018 | -0.0175 ± 0.0078 | -0.0195 ± 0.012 | -0.0135 ± 0.013 |
| BT:PBMC Cytotoxicity | 0.0245 ± 0.033 | 0.0005 ± 0.0035 | 0.056 ± 0.013 | -0.0045 ± 0.026 | 0.011 ± 0.0099 | -0.0095 ± 0.029 | -0.007 ± 0.0014 | 0.0035 ± 0.022 | 0.0055 ± 0.044 | 0.006 ± 0.018 | 0.0115 ± 0.005 | 0.0505 ± 0.018 | 0.0175 ± 0.0064 | 0.03 ± 0.0099 | 0.0125 ± 0.0078 | 0.0065 ± 0.049 | 0.001 ± 0.02 | -0.009 ± 0.025 |
| LPS:CD40 | 0.0515 ± 0.016 | 0.022 ± 0.0028 | 0.047 ± 0.016 | 0.015 ± 0.0014 | -0.0245 ± 0.015 | -0.0335 ± 0.0064 | -0.023 ± 0.027 | -0.0065 ± 0.011 | -0.0325 ± 0.025 | 0.037 ± 0.016 | -0.0195 ± 0.021 | -0.128 ± 0.024 | -0.0635 ± 0.018 | -0.115 ± 0.0042 | -0.015 ± 0.024 | -0.055 ± 0.024 | -0.061 ± 0.047 | -0.184 |
| 3C:CXCL8/IL-8 | 0.0295 ± 0.028 | 0.0455 ± 0.074 | 0.095 ± 0.062 | -0.0105 ± 0.0092 | -0.006 ± 0.0071 | 0.022 ± 0.031 | -0.016 ± 0.0071 | -0.017 ± 0.0042 | 0.007 ± 0.017 | -0.0005 ± 0.13 | 0.012 ± 0.057 | 0.079 ± 0.024 | 0.012 ± 0.018 | 0.0635 ± 0.0064 | -0.003 ± 0.027 | 0.038 ± 0.02 | 0.0255 ± 0.04 | 0.061 ± 0.071 |
